Experimental data taken from ChEMBL document CHEMBL1201862, “PubChem BioAssay data set” (2004).
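Test compounds were applied to cells in 96-well plates for 48 hours at 5 doses. GI50: concentration for 50% inhibition of growth.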 Calls of active or inactive are those of the source. Cut-off read from the data, not from the text of the source: active = GI50 up to about 1.1 µM and inactive = higher.

Tests used:
Assay in all cases: DTP human tumour cell line panel, 48 h
OVCAR-8 = test system: OVCAR-8
EKVX = test system: EKVX
HL-60 = test system: HL-60
OVCAR-3 = test system: OVCAR-3
UO-31 = test system: UO-31
SK-MEL-28 = test system: SK-MEL-28
OVCAR-4 = test system: OVCAR-4
BT-549 = test system: BT-549
OVCAR-5 = test system: OVCAR-5
RXF 393 = test system: RXF 393
SW-620 = test system: SW-620
LOX IMVI = test system: LOX IMVI
MDA-MB-435 = test system: MDA-MB-435
HCT-116 = test system: HCT-116
SF-295 = test system: SF-295
DU-145 = test system: DU-145
A549 = test system: A549
RPMI-8226 = test system: RPMI-8226
NCI-H460 = test system: NCI-H460
SK-OV-3 = test system: SK-OV-3

| SMILES | GI50 (OVCAR-8) | GI50 (EKVX) | GI50 (HL-60) | GI50 (OVCAR-3) | GI50 (UO-31) | GI50 (SK-MEL-28) | GI50 (OVCAR-4) | GI50 (BT-549) | GI50 (OVCAR-5) | GI50 (RXF 393) | GI50 (SW-620) | GI50 (LOX IMVI) | GI50 (MDA-MB-435) | GI50 (HCT-116) | GI50 (SF-295) | GI50 (DU-145) | GI50 (A549) | GI50 (RPMI-8226) | GI50 (NCI-H460) | GI50 (SK-OV-3) |
| --- | --- | --- | --- | --- | --- | --- | --- | --- | --- | --- | --- | --- | --- | --- | --- | --- | --- | --- | --- | --- |
| NC(=O)c1ccc(C(=O)Nc2ccc([As](=O)(O)O)cc2)cc1 | > 100 µM (inactive) | > 100 µM (inactive) | > 100 µM (inactive) | > 100 µM (inactive) | > 100 µM (inactive) | > 100 µM (inactive) | > 100 µM (inactive) | > 100 µM (inactive) | > 100 µM (inactive) | > 100 µM (inactive) | > 100 µM (inactive) | > 100 µM (inactive) | > 100 µM (inactive) | > 100 µM (inactive) | > 100 µM (inactive) | > 100 µM (inactive) | > 100 µM (inactive) | > 100 µM (inactive) | > 100 µM (inactive) | > 100 µM (inactive) |
| N=C(CC(=O)Nc1ccccn1)c1ccccc1 | > 100 µM (inactive) | > 100 µM (inactive) | > 100 µM (inactive) | > 100 µM (inactive) | > 100 µM (inactive) | > 100 µM (inactive) | > 100 µM (inactive) | > 100 µM (inactive) | > 100 µM (inactive) | > 100 µM (inactive) | > 100 µM (inactive) | > 100 µM (inactive) | > 100 µM (inactive) | > 100 µM (inactive) | > 100 µM (inactive) | > 100 µM (inactive) | > 100 µM (inactive) | > 100 µM (inactive) | > 100 µM (inactive) | > 100 µM (inactive) |
| Cc1c2c(c(C)c3c[n+](C)ccc13)Oc1ccccc1O2 | 6.05 µM (inactive) | 9.44 µM (inactive) | 13.3 µM (inactive) | 3.17 µM (inactive) | 94.4 µM (inactive) | 13.7 µM (inactive) | 9.42 µM (inactive) | 2.67 µM (inactive) | 18.2 µM (inactive) | 34.7 µM (inactive) | 16.9 µM (inactive) | 22.3 µM (inactive) | 15.1 µM (inactive) | 22.8 µM (inactive) | 5.69 µM (inactive) | 22.9 µM (inactive) | 1.84 µM (inactive) | 1.88 µM (inactive) | 3.4 µM (inactive) | 23.5 µM (inactive) |
| COC(=O)C(Cc1ccccc1)NC(=O)c1ccc(CNC(=S)NCc2cccc(CNC(=S)NCc3ccccc3)c2)cc1 (stereo not given) | > 31.7 µM (inactive) | > 32.2 µM (inactive) | > 62.5 µM (inactive) | 27.9 µM (inactive) | > 35.2 µM (inactive) | > 34 µM (inactive) | > 32.1 µM (inactive) | > 33.9 µM (inactive) | > 34.3 µM (inactive) | 20 µM (inactive) | > 32.9 µM (inactive) | > 35.6 µM (inactive) | > 34.2 µM (inactive) | > 34 µM (inactive) | > 33.4 µM (inactive) | > 35.9 µM (inactive) | > 34.5 µM (inactive) | > 29.1 µM (inactive) | > 36.5 µM (inactive) | > 33.9 µM (inactive) |
| COC(=O)C1(Cc2ccccc2C)Cc2ccc(C)cc2C1=O (stereo not given) | 47.9 µM (inactive) | 41.4 µM (inactive) | 15.6 µM (inactive) | 27.7 µM (inactive) | 36.6 µM (inactive) | 79.8 µM (inactive) | 36.6 µM (inactive) | 49.1 µM (inactive) | 89.7 µM (inactive) | 28.6 µM (inactive) | 45 µM (inactive) | 19.7 µM (inactive) | 32.3 µM (inactive) | 27.2 µM (inactive) | 34.4 µM (inactive) | 56.8 µM (inactive) | 33.2 µM (inactive) | 17 µM (inactive) | 30.8 µM (inactive) | 55.2 µM (inactive) |
| C[C@]12CCC(=O)[C@@H](CCC3=CC(=O)C=CC3=O)[C@@H]1CCC2=O | 16.1 µM (inactive) | 18.4 µM (inactive) | 2.7 µM (inactive) | 17.1 µM (inactive) | 14.3 µM (inactive) | 13.2 µM (inactive) | 17.2 µM (inactive) | 11 µM (inactive) | 41.5 µM (inactive) | 1.9 µM (inactive) | 18.2 µM (inactive) | 11 µM (inactive) | 22 µM (inactive) | 15.5 µM (inactive) | 17.8 µM (inactive) | 17.9 µM (inactive) | 18.8 µM (inactive) | 1.6 µM (inactive) | 13.2 µM (inactive) | 26.1 µM (inactive) |
| Cc1c2ncccc2c(C)c2c1[nH]c1ccc(O)cc12 | 4.35 µM (inactive) | 1.4 µM (inactive) | 2.32 µM (inactive) | 6.28 µM (inactive) | 3.35 µM (inactive) | 13.5 µM (inactive) | 4.15 µM (inactive) | 13.7 µM (inactive) | 11.3 µM (inactive) | 2.9 µM (inactive) | 2.8 µM (inactive) | 1.71 µM (inactive) | 7.64 µM (inactive) | 4.59 µM (inactive) | 2.48 µM (inactive) | 7.23 µM (inactive) | 2.56 µM (inactive) | 2 µM (inactive) | 1.31 µM (inactive) | 3.38 µM (inactive) |
| C=CCN1C(=O)/C(=C/c2cccs2)N=C1SC/C=C/C | 37.6 µM (inactive) | 33.6 µM (inactive) | 21.3 µM (inactive) | 44.8 µM (inactive) | 44.2 µM (inactive) | 54.1 µM (inactive) | 23.3 µM (inactive) | 39.1 µM (inactive) | 65.6 µM (inactive) | 22.8 µM (inactive) | 35.6 µM (inactive) | 36.1 µM (inactive) | 34.5 µM (inactive) | 26.3 µM (inactive) | 40.4 µM (inactive) | 63.1 µM (inactive) | 40.7 µM (inactive) | 16.9 µM (inactive) | 38.3 µM (inactive) | 95.3 µM (inactive) |
| Nc1nc(=O)c(/N=N/c2ccccc2)c(C(=O)O)[nH]1 | > 100 µM (inactive) | 23.3 µM (inactive) | 37.9 µM (inactive) | 98.4 µM (inactive) | > 100 µM (inactive) | > 100 µM (inactive) | > 100 µM (inactive) | > 100 µM (inactive) | > 100 µM (inactive) | > 100 µM (inactive) | > 100 µM (inactive) | 74.6 µM (inactive) | > 100 µM (inactive) | 61.8 µM (inactive) | 56.6 µM (inactive) | 98.6 µM (inactive) | 84.5 µM (inactive) | 63.8 µM (inactive) | 45.7 µM (inactive) | > 100 µM (inactive) |
| C=C1C(=O)O[C@@H]2C[C@@H](C)[C@@H]3[C@@H](OC4OC(COC(C)=O)C(O)C(O)C4O)CC(=O)[C@@]3(C)C[C@H]12 (stereo not given in full) | 1.36 µM (inactive) | 1.87 µM (inactive) | 0.211 µM (active) | 1.1 µM (active) | 1.83 µM (inactive) | 2.15 µM (inactive) | 3.31 µM (inactive) | 1.34 µM (inactive) | 3.54 µM (inactive) | 1.85 µM (inactive) | 0.574 µM (active) | 0.63 µM (active) | 2.26 µM (inactive) | 0.659 µM (active) | 17.3 µM (inactive) | 8.38 µM (inactive) | 8.67 µM (inactive) | 1.39 µM (inactive) | 14.3 µM (inactive) | 19.1 µM (inactive) |
| C=CCc1cc(-c2cc(CC=C)c(O)c(CN(CCCl)CCCl)c2)cc(CN(CCCl)CCCl)c1O | 12.1 µM (inactive) | 16 µM (inactive) | 3.09 µM (inactive) | 15.2 µM (inactive) | 16.3 µM (inactive) | 17.8 µM (inactive) | 17.6 µM (inactive) | 14.3 µM (inactive) | 18.3 µM (inactive) | 12.8 µM (inactive) | 12.3 µM (inactive) | 10.3 µM (inactive) | 15.4 µM (inactive) | 11.1 µM (inactive) | 13 µM (inactive) | 15.7 µM (inactive) | 13.7 µM (inactive) | 12.2 µM (inactive) | 3.79 µM (inactive) | 18.9 µM (inactive) |
| COC(=O)C1=CON2C3CC4CC(C3)CC(C4)C12C (stereo not given) | > 100 µM (inactive) | > 100 µM (inactive) | > 100 µM (inactive) | > 100 µM (inactive) | > 100 µM (inactive) | > 100 µM (inactive) | > 100 µM (inactive) | > 100 µM (inactive) | > 100 µM (inactive) | > 100 µM (inactive) | > 100 µM (inactive) | > 100 µM (inactive) | > 100 µM (inactive) | > 100 µM (inactive) | > 100 µM (inactive) | > 100 µM (inactive) | > 100 µM (inactive) | > 100 µM (inactive) | > 100 µM (inactive) | > 100 µM (inactive) |
| COc1c(OC(C)=O)c(OC(C)=O)cc2c1-c1ccc(OC)c(=O)cc1C(NC(C)=O)CC2 (stereo not given) | 0.0254 µM (active) | 8.51 µM (inactive) | < 0.01 µM (active) | 0.0138 µM (active) | 4.86 µM (inactive) | < 0.0363 µM (active) | 31.9 µM (inactive) | > 100 µM (inactive) | 2.61 µM (inactive) | < 0.01 µM (active) | < 0.0125 µM (active) | < 0.0147 µM (active) | < 0.01 µM (active) | 0.0215 µM (active) | 0.0424 µM (active) | 0.0525 µM (active) | 0.209 µM (active) | < 0.0142 µM (active) | 0.0451 µM (active) | 2.29 µM (inactive) |
| C[C@H]1[C@H]2[C@H](C[C@@]3(C)C4=CC[C@H]5C(C)(C)[C@@H](OC6OCC(O)C(O)C6O)CC[C@@]56C[C@@]46CC[C@]23C)O[C@@]2(O)[C@@H]1OC(C)(C)[C@H]2O (stereo not given in full) | 0.879 µM (active) | 1.12 µM (inactive) | 6.47 µM (inactive) | 3.01 µM (inactive) | 3.57 µM (inactive) | 2.48 µM (inactive) | 1.92 µM (inactive) | 1.86 µM (inactive) | 4.75 µM (inactive) | 1.2 µM (inactive) | 1.13 µM (inactive) | 1.48 µM (inactive) | 0.984 µM (active) | 1.45 µM (inactive) | 0.429 µM (active) | 1.02 µM (active) | 1.4 µM (inactive) | 1.15 µM (inactive) | 2.12 µM (inactive) | 1.74 µM (inactive) |
